Measurements published in ChEMBL document CHEMBL5465560, “Selectivity Literature for EUbOPEN Chemogenomic Library” (2024).

Key:
[1] = biological target: T1, Interleukin-1 receptor-associated kinase 4 (Homo sapiens) (UniProt Q9NWZ3); assay: Selectivity interaction (KinomeScan (DiscoverX)) EUB0001049a IRAK4; conditions: at 1 µM
T1 sequence (whole entry): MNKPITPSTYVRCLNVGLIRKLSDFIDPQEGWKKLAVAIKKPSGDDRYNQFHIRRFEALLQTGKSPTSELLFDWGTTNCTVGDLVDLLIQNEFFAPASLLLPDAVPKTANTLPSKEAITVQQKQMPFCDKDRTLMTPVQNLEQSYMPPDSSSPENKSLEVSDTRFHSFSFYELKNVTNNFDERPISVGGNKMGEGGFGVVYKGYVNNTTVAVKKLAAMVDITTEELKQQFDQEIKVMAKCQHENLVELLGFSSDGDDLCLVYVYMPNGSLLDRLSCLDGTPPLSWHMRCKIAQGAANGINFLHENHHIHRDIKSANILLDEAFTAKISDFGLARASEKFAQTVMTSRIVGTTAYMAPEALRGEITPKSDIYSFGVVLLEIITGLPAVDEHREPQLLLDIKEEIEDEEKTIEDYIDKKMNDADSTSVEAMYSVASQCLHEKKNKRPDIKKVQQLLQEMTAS

[2] = biological target: Mitogen-activated protein kinase 4 (Homo sapiens) (UniProt P31152); assay: Selectivity interaction (KinomeScan (DiscoverX)) EUB0000666a MAPK4; conditions: at 10 µM
Mitogen-activated protein kinase 4 (Homo sapiens), sequence (P31152 whole entry, canonical isoform): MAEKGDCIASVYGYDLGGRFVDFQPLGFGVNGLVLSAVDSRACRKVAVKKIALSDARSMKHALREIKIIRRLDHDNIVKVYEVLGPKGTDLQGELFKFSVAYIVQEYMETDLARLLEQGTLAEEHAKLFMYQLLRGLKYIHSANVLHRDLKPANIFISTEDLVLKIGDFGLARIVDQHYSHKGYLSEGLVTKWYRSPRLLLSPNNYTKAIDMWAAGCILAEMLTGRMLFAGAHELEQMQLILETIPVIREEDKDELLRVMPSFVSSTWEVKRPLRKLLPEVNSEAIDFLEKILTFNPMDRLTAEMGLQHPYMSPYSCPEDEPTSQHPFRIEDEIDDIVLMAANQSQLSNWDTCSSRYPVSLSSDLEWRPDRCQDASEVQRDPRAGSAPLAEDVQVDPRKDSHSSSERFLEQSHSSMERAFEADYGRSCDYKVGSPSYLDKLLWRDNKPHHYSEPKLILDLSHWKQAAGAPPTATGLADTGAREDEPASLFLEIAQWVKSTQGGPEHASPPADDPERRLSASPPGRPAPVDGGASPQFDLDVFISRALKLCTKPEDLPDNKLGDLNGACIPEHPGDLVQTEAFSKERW

[3] = biological target: Phosphorylase b kinase gamma catalytic chain, skeletal muscle/heart isoform (Homo sapiens) (UniProt Q16816); assay: Selectivity interaction (KinomeScan (DiscoverX)) EUB0000229b PHKG1; conditions: at 10 µM
Phosphorylase b kinase gamma catalytic chain, skeletal muscle/heart isoform (Homo sapiens), sequence (Q16816 whole entry, looked up, the tested form may be a part, canonical isoform): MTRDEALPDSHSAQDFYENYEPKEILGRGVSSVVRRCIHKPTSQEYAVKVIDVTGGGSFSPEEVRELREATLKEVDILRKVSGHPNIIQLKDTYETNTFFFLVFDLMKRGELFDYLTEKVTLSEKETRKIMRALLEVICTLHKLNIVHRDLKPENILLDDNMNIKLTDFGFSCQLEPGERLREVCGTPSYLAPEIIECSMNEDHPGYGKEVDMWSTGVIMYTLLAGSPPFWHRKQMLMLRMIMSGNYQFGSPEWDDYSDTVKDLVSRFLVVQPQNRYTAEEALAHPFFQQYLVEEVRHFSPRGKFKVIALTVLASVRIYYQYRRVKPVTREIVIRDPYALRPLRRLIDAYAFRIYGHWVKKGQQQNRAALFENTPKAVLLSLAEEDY

[4] = biological target: T2, Histone-lysine N-methyltransferase NSD3 (Homo sapiens) (UniProt Q9BZ95); assay: Selectivity interaction (PWWP, WD40, and Tudor domain panel (DSLS measurements, literature)) EUB0000270b NSD3
T2 sequence (whole entry): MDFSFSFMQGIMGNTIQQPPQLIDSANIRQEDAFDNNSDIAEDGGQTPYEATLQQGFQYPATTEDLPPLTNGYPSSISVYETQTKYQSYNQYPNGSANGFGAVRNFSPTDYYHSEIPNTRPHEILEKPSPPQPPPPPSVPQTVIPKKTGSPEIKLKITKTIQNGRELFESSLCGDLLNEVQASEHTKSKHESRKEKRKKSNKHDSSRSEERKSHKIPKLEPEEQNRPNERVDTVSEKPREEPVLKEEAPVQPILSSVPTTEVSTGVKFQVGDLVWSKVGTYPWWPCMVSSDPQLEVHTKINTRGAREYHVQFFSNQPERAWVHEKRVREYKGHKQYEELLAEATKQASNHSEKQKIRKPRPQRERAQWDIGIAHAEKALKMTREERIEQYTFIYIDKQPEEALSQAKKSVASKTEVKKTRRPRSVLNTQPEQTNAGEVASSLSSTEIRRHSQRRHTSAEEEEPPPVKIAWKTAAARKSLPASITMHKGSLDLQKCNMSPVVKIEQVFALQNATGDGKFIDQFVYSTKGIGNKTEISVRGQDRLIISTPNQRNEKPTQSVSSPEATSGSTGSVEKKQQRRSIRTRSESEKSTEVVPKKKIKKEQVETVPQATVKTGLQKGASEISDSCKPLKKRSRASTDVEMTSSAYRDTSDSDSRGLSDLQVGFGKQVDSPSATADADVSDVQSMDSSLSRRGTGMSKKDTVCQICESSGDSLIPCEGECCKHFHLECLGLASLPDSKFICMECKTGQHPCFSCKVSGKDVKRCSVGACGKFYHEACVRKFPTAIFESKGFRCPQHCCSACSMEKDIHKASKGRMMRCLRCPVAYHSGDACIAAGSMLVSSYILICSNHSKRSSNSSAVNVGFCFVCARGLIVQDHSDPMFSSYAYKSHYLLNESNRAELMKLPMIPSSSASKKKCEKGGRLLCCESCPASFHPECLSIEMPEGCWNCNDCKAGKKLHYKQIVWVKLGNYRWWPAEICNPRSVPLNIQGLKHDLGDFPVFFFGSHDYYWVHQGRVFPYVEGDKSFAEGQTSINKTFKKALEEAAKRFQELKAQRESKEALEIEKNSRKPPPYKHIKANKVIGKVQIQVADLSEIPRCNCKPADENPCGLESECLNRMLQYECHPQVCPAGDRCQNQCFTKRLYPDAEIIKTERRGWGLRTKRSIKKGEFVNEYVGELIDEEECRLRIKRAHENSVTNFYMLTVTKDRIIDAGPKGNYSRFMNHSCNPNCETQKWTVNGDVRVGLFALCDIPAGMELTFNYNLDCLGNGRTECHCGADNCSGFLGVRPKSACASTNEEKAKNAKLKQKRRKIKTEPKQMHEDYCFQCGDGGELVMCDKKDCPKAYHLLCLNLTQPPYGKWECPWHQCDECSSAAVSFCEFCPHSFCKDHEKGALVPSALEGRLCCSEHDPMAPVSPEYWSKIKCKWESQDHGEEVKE

[5] = biological target: Cyclin-dependent kinase 9 (Homo sapiens, UniProt P50750); assay: Selectivity interaction (Ambit KINOMEscan and KiNATiv profiling in Jurkat cells) EUB0000090b CDK9; format: cell-based; conditions: at 1 µM
Cyclin-dependent kinase 9, sequence (P50750 whole entry): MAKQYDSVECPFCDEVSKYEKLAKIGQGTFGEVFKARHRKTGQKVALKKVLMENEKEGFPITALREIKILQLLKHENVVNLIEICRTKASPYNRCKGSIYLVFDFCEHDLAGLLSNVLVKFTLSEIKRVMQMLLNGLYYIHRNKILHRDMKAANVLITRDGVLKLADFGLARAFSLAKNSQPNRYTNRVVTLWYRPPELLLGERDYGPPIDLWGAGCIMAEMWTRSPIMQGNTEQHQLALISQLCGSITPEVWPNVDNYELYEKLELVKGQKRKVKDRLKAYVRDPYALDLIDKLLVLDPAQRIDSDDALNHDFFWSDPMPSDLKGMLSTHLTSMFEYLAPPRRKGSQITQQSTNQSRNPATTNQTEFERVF

[6] = biological target: Mitogen-activated protein kinase kinase kinase 10 (Homo sapiens) (UniProt Q02779); assay: Selectivity interaction (KinomeScan (DiscoverX)) EUB0000618a MAP3K10; conditions: at 10 µM
Mitogen-activated protein kinase kinase kinase 10 (Homo sapiens), sequence (Q02779 whole entry, looked up): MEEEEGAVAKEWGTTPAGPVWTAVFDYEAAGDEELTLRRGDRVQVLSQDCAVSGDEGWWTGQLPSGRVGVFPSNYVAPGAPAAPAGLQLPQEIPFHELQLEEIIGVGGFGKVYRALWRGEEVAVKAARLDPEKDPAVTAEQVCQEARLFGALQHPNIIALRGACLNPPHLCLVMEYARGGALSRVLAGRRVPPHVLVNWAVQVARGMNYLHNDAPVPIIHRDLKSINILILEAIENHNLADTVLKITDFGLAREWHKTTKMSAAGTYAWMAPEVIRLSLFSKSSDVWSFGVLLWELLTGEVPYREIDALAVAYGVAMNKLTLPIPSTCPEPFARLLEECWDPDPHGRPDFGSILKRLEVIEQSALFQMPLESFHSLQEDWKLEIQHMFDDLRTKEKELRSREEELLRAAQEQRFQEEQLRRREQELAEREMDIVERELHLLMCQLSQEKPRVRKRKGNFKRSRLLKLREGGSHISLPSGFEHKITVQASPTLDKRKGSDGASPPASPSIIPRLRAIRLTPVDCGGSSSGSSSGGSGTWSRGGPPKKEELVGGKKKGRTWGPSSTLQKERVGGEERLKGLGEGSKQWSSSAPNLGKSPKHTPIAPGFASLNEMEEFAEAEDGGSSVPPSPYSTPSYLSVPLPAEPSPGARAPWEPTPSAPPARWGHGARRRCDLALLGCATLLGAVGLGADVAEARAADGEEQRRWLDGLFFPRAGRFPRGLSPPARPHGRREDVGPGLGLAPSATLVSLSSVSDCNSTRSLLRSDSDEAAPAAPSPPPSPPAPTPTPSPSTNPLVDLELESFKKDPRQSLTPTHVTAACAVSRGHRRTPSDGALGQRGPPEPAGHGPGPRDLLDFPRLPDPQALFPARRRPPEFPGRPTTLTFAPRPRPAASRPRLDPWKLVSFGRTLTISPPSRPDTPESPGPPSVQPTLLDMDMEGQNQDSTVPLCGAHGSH

[7] = biological target: Serine/threonine-protein kinase 33 (Homo sapiens) (UniProt Q9BYT3); assay: Selectivity interaction (Upstate Kinase Profiler service (Millipore)) EUB0000056c STK33; conditions: at 1 µM
Serine/threonine-protein kinase 33 (Homo sapiens), sequence (Q9BYT3 whole entry, looked up): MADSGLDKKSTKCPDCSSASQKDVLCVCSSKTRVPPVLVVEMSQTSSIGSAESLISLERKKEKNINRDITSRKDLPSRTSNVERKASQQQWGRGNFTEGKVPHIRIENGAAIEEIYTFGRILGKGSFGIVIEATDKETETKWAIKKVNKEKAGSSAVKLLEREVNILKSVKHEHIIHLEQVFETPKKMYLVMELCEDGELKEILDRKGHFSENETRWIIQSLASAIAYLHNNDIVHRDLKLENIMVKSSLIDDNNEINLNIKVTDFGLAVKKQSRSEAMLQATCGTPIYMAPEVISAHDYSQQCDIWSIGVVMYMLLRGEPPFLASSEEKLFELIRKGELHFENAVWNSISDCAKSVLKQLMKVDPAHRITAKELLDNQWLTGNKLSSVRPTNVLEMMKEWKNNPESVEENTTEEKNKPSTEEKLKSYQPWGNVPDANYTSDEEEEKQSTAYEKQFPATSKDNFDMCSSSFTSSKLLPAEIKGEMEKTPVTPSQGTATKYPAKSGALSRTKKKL

[8] = biological target: [Pyruvate dehydrogenase (acetyl-transferring)] kinase isozyme 1, mitochondrial (Homo sapiens, UniProt Q15118); assay: Selectivity interaction (SelectScreen profiling (Invitrogen)) EUB0000607a PDK1; conditions: at 2 µM
[9] = biological target: T3, Megakaryocyte-associated tyrosine-protein kinase (Homo sapiens) (UniProt P42679); assay: Selectivity interaction (KinomeScan (DiscoverX)) EUB0000607a MATK; conditions: at 10 µM
T3 sequence (whole entry): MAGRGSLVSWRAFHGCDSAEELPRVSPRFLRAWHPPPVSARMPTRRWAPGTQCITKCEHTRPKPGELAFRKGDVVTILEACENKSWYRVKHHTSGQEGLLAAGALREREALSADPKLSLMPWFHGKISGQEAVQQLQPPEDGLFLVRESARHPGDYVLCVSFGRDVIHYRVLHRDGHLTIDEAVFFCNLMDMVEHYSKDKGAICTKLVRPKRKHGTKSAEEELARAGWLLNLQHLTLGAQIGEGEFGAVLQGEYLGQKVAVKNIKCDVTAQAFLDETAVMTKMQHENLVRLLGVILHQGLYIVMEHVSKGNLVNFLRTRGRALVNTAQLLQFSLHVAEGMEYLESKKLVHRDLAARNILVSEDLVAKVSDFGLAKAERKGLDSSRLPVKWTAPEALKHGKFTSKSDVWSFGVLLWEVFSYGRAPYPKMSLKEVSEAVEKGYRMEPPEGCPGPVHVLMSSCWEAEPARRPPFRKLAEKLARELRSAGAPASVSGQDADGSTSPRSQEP

COc1cc(Nc2nc(C)cc(-c3cnn4nc(OC)ccc34)n2)cc(C(F)(F)F)c1
% of control [1]: 87%

O=C(NOC[C@H](O)CO)c1ccc(F)c(F)c1Nc1ccc(I)cc1F
% of control [2]: 77%

COc1cc(N(C)c2ccnc3ccc(C(F)(F)F)cc23)cc(OC)c1OC
% binding [3]: 100%

Cc1cc(CN)cc(C)c1-c1ncn(C)c1-c1cncn1C
dTagg [4]: 0.5 K

CN(C)C/C=C/C(=O)Nc1ccc(C(=O)N2CCCC(Nc3ncc(Cl)c(-c4c[nH]c5ccccc45)n3)C2)cc1 (centres undefined)
% of control [5]: 58%

O[C@H]1CC[C@H](Nc2ncc3nc(Nc4c(F)cc(F)cc4F)n([C@H]4CCOC4)c3n2)CC1
% of control [6]: 100%

Cc1ccc(-c2ccc3c(ccc4sc5c(c43)NC[C@@H](C)NC5=O)n2)cn1
% of inhibition [7]: 39%

CNC(=O)Nc1ccc(-c2nc(N3CC4CCC(C3)O4)c3cnn(C4CCC5(CC4)OCCO5)c3n2)cc1
% of inhibition [8]: 3% | % of control [9]: 100%
